Measured values from the supplement of paper PMC10307832.

Columns and labels:
Assay in all cases: relative viability (nuclei count vs DMSO), 5 days (fraction); higher = more cells survive
Midostaurin + Dasatinib = compound: CO[C@@H]1[C@H](N(C)C(=O)c2ccccc2)C[C@H]2O[C@]1(C)n1c3ccccc3c3c4c(c5c6ccccc6n2c5c31)C(=O)NC4 [Midostaurin] + Cc1nc(Nc2ncc(C(=O)Nc3c(C)cccc3Cl)s2)cc(N2CCN(CCO)CC2)n1 [Dasatinib] (partner 0.075 µM)
Outline: (§1)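 Values are medians from duplicate plates. Each reflects relative viability, defined as the nuclei count of treated wells over that of vehicle wells. Lung cancer cell lines in 1536-well plates were pin-tool dosed one day after seeding with one drug alone or with a fixed anchor-drug dose plus five library-drug doses (not always all listed) in √10 steps, then fixed, stained and imaged at 4× after 5 days.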

Midostaurin + Phenformin = compound: CO[C@@H]1[C@H](N(C)C(=O)c2ccccc2)C[C@H]2O[C@]1(C)n1c3ccccc3c3c4c(c5c6ccccc6n2c5c31)C(=O)NC4 [Midostaurin] + N=C(N)NC(=N)NCCc1ccccc1 [Phenformin] (partner 250 µM)
Outline: as §1

[1] = compound: COc1cc(-c2nn([C@H]3CC[C@H](N4CCN(C(C)=O)CC4)CC3)c3ncnc(N)c23)ccc1NC(=O)c1cc2ccccc2n1C + CC(=O)c1c(C)c2cnc(Nc3ccc(N4CCNCC4)cn3)nc2n(C2CCCC2)c1=O [Palbociclib] (partner 0.5 µM)
Outline: as §1

[2] = compound: COc1cc(-c2nn([C@H]3CC[C@H](N4CCN(C(C)=O)CC4)CC3)c3ncnc(N)c23)ccc1NC(=O)c1cc2ccccc2n1C + CCNC(=O)c1noc(-c2cc(C(C)C)c(O)cc2O)c1-c1ccc(CN2CCOCC2)cc1 [Luminespib] (partner 0.01 µM)
Outline: as §1

[3] = compound: COc1cc(-c2nn([C@H]3CC[C@H](N4CCN(C(C)=O)CC4)CC3)c3ncnc(N)c23)ccc1NC(=O)c1cc2ccccc2n1C + O=C(c1cc(Cc2n[nH]c(=O)c3ccccc23)ccc1F)N1CCN(C(=O)C2CC2)CC1 [Olaparib] (partner 8 µM)
Outline: as §1

UMC-11 showed a relative viability (Midostaurin + Dasatinib; first compound 0.01 µM) of 0.362, a relative viability (Midostaurin + Dasatinib; first compound 0.03162 µM) of 0.403 and a relative viability (Midostaurin + Dasatinib; first compound 0.1 µM) of 0.444. For the same cell line, the relative viability (Midostaurin + Dasatinib; first compound 0.3162 µM) was 0.344, the relative viability (Midostaurin + Phenformin; first compound 0.01 µM) was 0.3 and the relative viability (Midostaurin + Phenformin; first compound 0.03162 µM) was 0.328. It also gave a relative viability (Midostaurin + Phenformin; first compound 0.1 µM) of 0.32, a relative viability (Midostaurin + Phenformin; first compound 0.3162 µM) of 0.281 and a relative viability ([1]; first compound 0.0128 µM) of 0.349. For the same cell line, the relative viability ([1]; first compound 0.04048 µM) was 0.341, the relative viability ([1]; first compound 0.128 µM) was 0.335 and the relative viability ([1]; first compound 1.28 µM) was 0.341. It also gave a relative viability ([2]; first compound 0.0128 µM) of 0.928, a relative viability ([2]; first compound 0.04048 µM) of 0.956 and a relative viability ([2]; first compound 0.128 µM) of 0.922. It also gave a relative viability ([2]; first compound 1.28 µM) of 0.818, a relative viability ([3]; first compound 0.0128 µM) of 0.388 and a relative viability ([3]; first compound 0.04048 µM) of 0.464. For the same cell line, the relative viability ([3]; first compound 0.128 µM) was 0.342 and the relative viability ([3]; first compound 1.28 µM) was 0.362.
